# Measured values published in patent US20230159453A1 (COCRYSTAL PHARMA, INC., priority 2020, published 2023).
# Target: SARS2 protease (Severe acute respiratory syndrome coronavirus 2, UniProt P0DTD1)
# Experiment: SARS-CoV-2 protease inhibition assay (SARS2 FRET protease assay)
# Assay type: biochemical
# Settings: SARS-CoV-2 protease 25 nM, FRET, peptide substrate 1.3 μM, 30 minutes at 30° C., compounds 20 μM to 1.0 nM; read-out: IC50
row,Structure (SMILES),IC50 [nM]
1,"CC(C)(c1cccc(Cl)c1)C(OC(=O)N[C@@H](CC1CCCCC1)C(=O)N[C@H](C=O)C[C@@H]1CCNC1=O)c1ccc(F)cc1 (stereo partly drawn) [Compound C137, 2-(3-Chlorophenyl)-1-(4-fluorophenyl)-2-methylpropyl ((S)-3-cyclohexyl-1-oxo-1-(((S)-1-oxo-3-((S)-2-oxopyrrolidin-3-yl)propan-2-yl)amino)propan-2-yl) carbamate]",43.6
2,"O=CC(CC1CC2(CCOCC2)NC1=O)NC(=O)[C@H](CC1CCCCC1)NC(=O)OC1CCCC1Cc1cccc(Cl)c1 (stereo partly drawn) [Compound C225, 2-(3-chlorobenzyl)cyclopentyl ((2S)-3-cyclohexyl-1-oxo-1-((1-oxo-3-(2-oxo-8-oxa-1-azaspiro[4.5]decan-3-yl)propan-2-yl)amino)propan-2-yl)carbamate]",1010
3,"CC1(C)CC(C[C@H](NC(=O)[C@H](CC2CCCCC2)NC(=O)OC(Cc2cccc(Cl)c2)c2cccc(Cl)c2)C(=O)C(=O)NC2CC2)C(=O)N1 (stereo partly drawn) [Compound C172, 1,2-Bis (3-Chlorophenyl) ethyl ((2S)-3-cyclohexyl-1-((4-(cyclopropylamino)-1-(5,5-dimethyl-2-oxopyrrolidin-3-yl)-3,4-dioxobutan-2-yl)amino)-1-oxopropan-2-yl)carbamate]",1670
4,"CC(C)C[C@H](NC(=O)OC(C)(C)Cc1ccccc1)C(=O)N[C@@H](C[C@@H]1CCNC1=O)C(O)S(=O)(=O)O (stereo partly drawn) [Compound C57, (2S)-1-hydroxy-2-((S)-4-methyl-2-((((2-methyl-1-phenylpropan-2-yl)oxy)carbonyl)amino)pentanamido)-3-((S)-2-oxopyrrolidin-3-yl)propane-1-sulfonate]",800
5,"CC(C)C[C@H](NC(=O)OC(c1ccccc1)C(C)(C)c1cccc(Cl)c1)C(=O)NC(CC1CC(C)(C)NC1=O)C(=O)C(N)=O (stereo partly drawn) [Compound C218, 2-(3-Chlorophenyl)-2-methyl-1-phenylpropyl ((2S)-1-((4-amino-1-(5,5-dimethyl-2-oxopyrrolidin-3-yl)-3,4-dioxobutan-2-yl)amino)-4-methyl-1-oxopentan-2-yl)carbamate]",1850
6,"O=C[C@H](CCC(=O)N1CCOc2ccc(Cl)cc2C1)NC(=O)[C@H](CC1CCCCC1)NC(=O)OCc1cccc(Cl)c1 [Compound C15, 3-Chlorobenzyl ((S)-1-(((S)-5-(7-chloro-2,3-dihydrobenzo[f][1,4]oxazepin-4(5H)-yl)-1,5-dioxopentan-2-yl)amino)-3-cyclohexyl-1-oxopropan-2-yl)carbamate]",> 200000
7,NC(=O)C(=O)[C@H](C[C@@H]1CCNC1=O)NC(=O)[C@H](Cc1ccccc1)NC(=O)OC(CCc1ccccc1)c1ccccc1 (stereo partly shown) [Compound C255],70
8,"CCOP(=O)(OCC)C(O)[C@H](CCC(=O)N(C)C1(Cc2ccccc2)CC1)NC(=O)[C@H](CC1CCCCC1)NC(=O)OCc1cccc(Cl)c1 (stereo partly drawn) [Compound C5, 3-Chlorobenzyl ((2S)-1-(((2S)-5-((1-benzylcyclopropyl)(methyl)amino)-1-(diethoxyphosphoryl)-1-hydroxy-5-oxopentan-2-yl)amino)-3-cyclohexyl-1-oxopropan-2-yl)carbamate]",> 200000
9,"O=C(N[C@@H](CC1CCCCC1)C(=O)NC(CC1CC2(CCCCC2)NC1=O)C(=O)C(=O)NC1CC1)OC(Cc1cccc(Cl)c1)c1ccccc1 (stereo partly drawn) [Compound C153, 2-(3-Chlorophenyl)-1-phenylethyl ((2S)-3-cyclohexyl-1-((4-(cyclopropylamino)-3,4-dioxo-1-(2-oxo-1-azaspiro[4.5]decan-3-yl)butan-2-yl)amino)-1-oxopropan-2-yl)carbamate]",> 20000
10,"CCOP(=O)(OCC)C(O)C(CC1CC2(CCN(C(C)=O)CC2)NC1=O)NC(=O)[C@H](Cc1cccc(F)c1)NC(=O)OCc1cccc(Cl)c1 (stereo partly drawn) [Compound C82, 3-Chlorobenzyl ((2S)-1-((3-(8-acetyl-2-oxo-1,8-diazaspiro[4.5]decan-3-yl)-1-(diethoxyphosphoryl)-1-hydroxypropan-2-yl)amino)-3-(3-fluorophenyl)-1-oxopropan-2-yl)carbamate]",4400
11,"CC(C)C[C@H](NC(=O)OC1(Cc2cccc(OCc3ccccc3)c2)CC1)C(=O)N[C@H](C=O)C[C@@H]1CCNC1=O [Compound C60, 1-(3-(Benzyloxy)benzyl)cyclopropyl ((S)-4-methyl-1-oxo-1-(((S)-1-oxo-3-((S)-2-oxopyrrolidin-3-yl)propan-2-yl)amino)pentan-2-yl)carbamate]",600
12,CC(C)C[C@H](NC(=O)OC(c1ccccc1)C(F)(F)c1cccc(Cl)c1)C(=O)N[C@@H](C[C@@H]1CCNC1=O)C(=O)CO (stereo partly shown) [Compound C279],6590
13,"CC(C)(c1cccc(Cl)c1)C(OC(=O)N[C@@H](CC1CCCCC1)C(=O)N[C@@H](C[C@@H]1CCNC1=O)C(=O)C(N)=O)c1ccc2c(c1)CCC2 (stereo partly drawn) [Compound C131, 2-(3-Chlorophenyl)-1-(2,3-dihydro-1H-inden-5-yl)-2-methylpropyl ((S)-1-(((S)-4-amino-3,4-dioxo-1-((S)-2-oxopyrrolidin-3-yl)butan-2-yl)amino)-3-cyclohexyl-1-oxopropan-2-yl)carbamate]",15800
14,"CC(C)C[C@H](NC(=O)OC(c1cccc(Cl)c1)C1(c2cccc(Cl)c2)CC1)C(=O)N[C@H](C=O)C[C@@H]1CCNC1=O (stereo partly drawn) [Compound C203, (3-chlorophenyl)(1-(3-chlorophenyl)cyclopropyl)methyl ((S)-4-methyl-1-oxo-1-(((S)-1-oxo-3-((S)-2-oxopyrrolidin-3-yl)propan-2-yl)amino)pentan-2-yl)carbamate]",10.5
15,"CC(=O)N1CCC2(CC1)CC(CC(NC(=O)C(Cc1ccccc1)NC(=O)c1cnc3ccccc3n1)C(=O)C(N)=O)C(=O)N2 (stereo in doubt) [Compound C130, N-((2S)-1-((1-(8-acetyl-2-oxo-1,8-diazaspiro[4.5]decan-3-yl)-4-amino-3,4-dioxobutan-2-yl)amino)-1-oxo-3-phenylpropan-2-yl)quinoxaline-2-carboxamide]",> 20000
16,"CC(C)(c1cccc(Cl)c1)C(OC(=O)N[C@@H](CC1CCCCC1)C(=O)N[C@@H](C[C@@H]1CCNC1=O)C(=O)C(=O)NC1CC1)c1ccccc1Cl (stereo partly drawn) [Compound C186, 1-(2-Chlorophenyl)-2-(3-chlorophenyl)-2-methylpropyl ((S)-3-cyclohexyl-1-(((S)-4-(cyclopropylamino)-3,4-dioxo-1-((S)-2-oxopyrrolidin-3-yl)butan-2-yl)amino)-1-oxopropan-2-yl) carbamate]",1240
17,"COc1cccc2[nH]c(C(=O)N[C@@H](CC3CCCCC3)C(=O)NC(C=O)CC3CC4(CCN(C(C)=O)CC4)NC3=O)cc12 (stereo partly drawn) [Compound C133, N-((2S)-1-((1-(8-acetyl-2-oxo-1,8-diazaspiro[4.5]decan-3-yl)-3-oxopropan-2-yl)amino)-3-cyclohexyl-1-oxopropan-2-yl)-4-methoxy-1H-indole-2-carboxamide]",0.0855
18,"CCOP(=O)(OCC)C(O)C(CC1CC2(CCN(C(C)=O)CC2)NC1=O)NC(=O)[C@H](CC(C)C)NC(=O)c1cc2ccccc2[nH]1 (stereo partly drawn) [Compound C94, Diethyl (2-((S)-2-(1H-indole-2-carboxamido)-4-methylpentanamido)-3-(8-acetyl-2-oxo-1,8-diazaspiro[4.5]decan-3-yl)-1-hydroxypropyl)phosphonate]",2600
19,"CC(C)(c1cccc(Cl)c1)C(OC(=O)N[C@@H](CC1CCCCC1)C(=O)N[C@H](C=O)C[C@@H]1CCNC1=O)c1cccc(F)c1 (stereo partly drawn) [Compound C105, 2-(3-Chlorophenyl)-1-(3-fluorophenyl)-2-methylpropyl ((S)-3-cyclohexyl-1-oxo-1-(((S)-1-oxo-3-((S)-2-oxopyrrolidin-3-yl)propan-2-yl)amino)propan-2-yl)carbamate]",0.6
20,"CC(C)C[C@H](NC(=O)OC1(Cc2cccc(Cl)c2)CCC1)C(=O)N[C@@H](CC1CC2(CCOCC2)NC1=O)C(=O)C(=O)NC1CC1 (stereo partly drawn) [Compound C169, 1-(3-chlorobenzyl)cyclobutyl ((2S)-1-((4-(cyclopropylamino)-3,4-dioxo-1-(2-oxo-8-oxa-1-azaspiro[4.5]decan-3-yl)butan-2-yl)amino)-4-methyl-1-oxopentan-2-yl)carbamate]",5990
21,"CC(C)C[C@H](NC(=O)OC1(Cc2cccc(Cl)c2)CC1)C(=O)N[C@H](C=O)C[C@@H]1CCNC1=O [Compound C45, 1-(3-Chlorobenzyl) cyclopropyl ((S)-4-methyl-1-oxo-1-(((S)-1-oxo-3-((S)-2-oxopyrrolidin-3-yl)propan-2-yl)amino)pentan-2-yl)carbamate]",304
22,"CC1(C)CC(CC(NC(=O)[C@H](CC2CCCCC2)NC(=O)OC(c2cccc(F)c2)C(C)(C)c2cccc(Cl)c2)C(=O)C(N)=O)C(=O)N1 (stereo partly drawn) [Compound C220, 2-(3-Chlorophenyl)-1-(3-fluorophenyl)-2-methylpropyl ((2S)-1-((4-amino-1-(5,5-dimethyl-2-oxopyrrolidin-3-yl)-3,4-dioxobutan-2-yl)amino)-3-cyclohexyl-1-oxopropan-2-yl)carbamate]",1830
23,"CC(C)C[C@H](NC(=O)OC1CCN(C(=O)OC(C)(C)C)c2ccccc21)C(=O)N[C@@H](C[C@@H]1CCNC1=O)C(=O)C(=O)NCc1ccccn1 (stereo partly drawn) [Compound C86, Tert-butyl 4-((((S)-1-(((S)-3,4-dioxo-1-((S)-2-oxopyrrolidin-3-yl)-4-((pyridin-2-ylmethyl)amino)butan-2-yl)amino)-4-methyl-1-oxopentan-2-yl)carbamoyl)oxy)-3,4-dihydroquinoline-1(2H)-carboxylate]",900
24,"CC(C)C[C@H](NC(=O)OC1CCN(C(=O)OC(C)(C)C)CC1)C(=O)N[C@H](C=O)C[C@@H]1CCNC1=O [Compound C34, Tert-butyl 4-((((S)-4-methyl-1-oxo-1-(((S)-1-oxo-3-((S)-2-oxopyrrolidin-3-yl)propan-2-yl)amino)pentan-2-yl)carbamoyl)oxy) piperidine-1-carboxylate]",100
25,"CC(C)C[C@H](NC(=O)OC1(Cc2cccnc2)CC1)C(=O)N[C@H](C=O)C[C@@H]1CCNC1=O [Compound C71, 1-(Pyridin-3-ylmethyl)cyclopropyl ((S)-4-methyl-1-oxo-1-(((S)-1-oxo-3-((S)-2-oxopyrrolidin-3-yl)propan-2-yl)amino)pentan-2-yl)carbamate]",1600
